{"source": "BindingDB's records for doi:10.1016/j.chembiol.2009.07.006", "about": "(Burnham Institute For Medical Research, 2009)", "biological_target": "T1, Nicotinate-nucleotide adenylyltransferase (Escherichia coli (strain K12), UniProt P0A752)", "T1 sequence (P0A752 whole entry)": "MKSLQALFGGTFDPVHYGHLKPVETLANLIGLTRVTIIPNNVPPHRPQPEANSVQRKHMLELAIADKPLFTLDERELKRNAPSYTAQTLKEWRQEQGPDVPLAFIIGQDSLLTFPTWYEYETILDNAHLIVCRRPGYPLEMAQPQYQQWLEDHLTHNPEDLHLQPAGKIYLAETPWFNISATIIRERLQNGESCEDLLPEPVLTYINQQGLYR", "assay": "Enzymatic Inhibition Assay", "excerpt": "The enzymatic assay was masured at fixed NaMN and ATP concentration (equal to two-fold km values)with various concentration of inhibitory compounds.", "note": "Where “and” joins values, the source holds several entries; their conditions need not be identical. Identical values can stand only once.", "data": [{"smiles": "O=C(CCC(=O)Nc1cccc(Cl)c1)NN=Cc1c2ccccc2cc2ccccc12", "note": "[NadD inhibitor 1_02]", "values": [{"measurement": "Ki", "result": "8 µM and 5 µM"}]}]}
